ChEMBL document CHEMBL4229435, “Synthesis and antimicrobial activity of β-carboline derivatives with N2-alkyl modifications” (2018)
Converted amounts (≈) assume the structure as drawn.

Key:
Assay type in all cases: functional
[1] = test system: Pichia kudriavzevii; test: Antimicrobial activity against Candida krusei ATCC 14243 after 24 hrs by agar plate dilution method; conditions: ATCC 14243, 24 h
[2] = test system: [Candida] intermedia; test: Antimicrobial activity against Candida intermedia GAI 15003 after 24 hrs by agar plate dilution method; conditions: Sungouiella intermedia, GAI 15003, 24 h
[3] = test system: Escherichia coli; test: Antimicrobial activity against Escherichia coli ATCC 25922 after 24 hrs by agar plate dilution method; conditions: ATCC 25922, 24 h
[4] = test system: Candida albicans; test: Antimicrobial activity against Candida albicans GAI 05108 after 24 hrs by agar plate dilution method; conditions: GAI 05108, 24 h
[5] = test system: Staphylococcus aureus; test: Antimicrobial activity against methicillin-resistant Staphylococcus aureus GAI 11112 after 24 hrs by agar plate dilution method; conditions: GAI 11112, 24 h
[6] = test system: Staphylococcus aureus; test: Antimicrobial activity against methicillin-sensitive Staphylococcus aureus ATCC 25923 after 24 hrs by agar plate dilution method; conditions: ATCC 25923, 24 h
[7] = test system: Staphylococcus aureus; test: Antimicrobial activity against methicillin-resistant Staphylococcus aureus GAI 10152 after 24 hrs by agar plate dilution method; conditions: GAI 10152, 24 h
[8] = test system: Acinetobacter baumannii; test: Antimicrobial activity against Acinetobacter baumannii GAI 07545 after 24 hrs by agar plate dilution method; conditions: GAI 07545, 24 h
[9] = test system: Staphylococcus aureus; test: Antimicrobial activity against methicillin-resistant Staphylococcus aureus GAI 10151 after 24 hrs by agar plate dilution method; conditions: GAI 10151, 24 h
[10] = test system: Staphylococcus aureus; test: Antimicrobial activity against methicillin-resistant Staphylococcus aureus GAI 10153 after 24 hrs by agar plate dilution method; conditions: GAI 10153, 24 h
[11] = test system: Pseudomonas aeruginosa; test: Antimicrobial activity against Pseudomonas aeruginosa GAI 12066 after 24 hrs by agar plate dilution method; conditions: GAI 12066, 24 h

SMILES	MIC [1]	MIC [2]	MIC [3]	MIC [4]	MIC [5]	MIC [6]	MIC [7]	MIC [8]	MIC [9]	MIC [10]	MIC [11]
C[n+]1ccc2c3ccccc3n(-n3c4ccccc4c4cc[n+](C)cc43)c2c1	500 µM	125 µM	1000 µM	500 µM	125 µM	125 µM	–	–	–	–	–
Clc1ccc2c(c1)c1cc[n+](Cc3ccccn3)cc1n2-n1c2ccc(Cl)cc2c2cc[n+](Cc3ccccn3)cc21	> 1000 µM	500 µM	> 1000 µM	> 1000 µM	–	> 1000 µM	> 1000 µM	> 1000 µM	> 1000 µM	> 1000 µM	> 1000 µM
Clc1ccc2c(c1)c1cc[n+](Cc3ccccc3)cc1n2-n1c2ccc(Cl)cc2c2cc[n+](Cc3ccccc3)cc21	500 µM	10 µM	500 µM	500 µM	–	10 µM	10 µM	500 µM	50 µM	10 µM	> 1000 µM
C[n+]1ccc2c3cc(Cl)ccc3n(-n3c4ccc(Cl)cc4c4cc[n+](C)cc43)c2c1	500 µM	50 µM	500 µM	> 1000 µM	–	50 µM	50 µM	> 1000 µM	500 µM	50 µM	> 1000 µM
c1ccc2c(c1)c1ccncc1n2-n1c2ccccc2c2ccncc21	> 1000 µM	125 µM (≈ 41.8 µg/mL)	> 1000 µM	> 1000 µM	> 1000 µM	> 1000 µM	–	–	–	–	–
Clc1ccc2[nH]c3c[n+](Cc4ccccn4)ccc3c2c1	> 1000 µM	500 µM	> 1000 µM	> 1000 µM	–	> 1000 µM	> 1000 µM	> 1000 µM	> 1000 µM	> 1000 µM	> 1000 µM
C[n+]1ccc2c(c1)[nH]c1ccccc12	125 µM	125 µM	1000 µM	500 µM	1000 µM	> 1000 µM	–	–	–	–	–
Clc1ccc2[nH]c3c[n+](Cc4ccccc4)ccc3c2c1	500 µM	10 µM	> 1000 µM	> 1000 µM	–	> 1000 µM	500 µM	500 µM	500 µM	500 µM	> 1000 µM
c1ccc2c(c1)[nH]c1cnccc12 [NORHARMANE]	125 µM (≈ 21 µg/mL)	125 µM (≈ 21 µg/mL)	250 µM (≈ 42 µg/mL)	125 µM (≈ 21 µg/mL)	250 µM (≈ 42 µg/mL)	> 1000 µM	–	–	–	–	–
C[n+]1ccc2c(c1)[nH]c1ccc(Cl)cc12 [NOSTOCARBOLINE]	50 µM	> 1000 µM	500 µM	> 1000 µM	–	> 1000 µM	> 1000 µM	> 1000 µM	> 1000 µM	> 1000 µM	> 1000 µM
